Reference: PubChem BioAssay (NCI)
Several values for one entry are separate records, joined by “and”; a condition that tells them apart may be missing. Equal values may be shown once.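 These data come from cells grown in 96-well plates and exposed to compound for 48 hours at five concentrations. GI50 marks 50% less growth. TGI: total growth inhibition.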

Assays:
Test in all cases: NCI tumour cell line growth inhibition, 48 h
[1] = tested on: DMS 273 small cell lung
[2] = tested on: HL-60(TB) leukemia
[3] = tested on: HOP-92 NSCLC
[4] = tested on: HT29 colon
[5] = tested on: SK-MEL-5 melanoma
[6] = tested on: SNB-75 CNS
[7] = tested on: SNB-78 CNS
[8] = tested on: UO-31 renal
[9] = tested on: BT-549 breast
[10] = tested on: PC-3 prostate

Compound | TGI [1] | TGI [2] | TGI [3] | TGI [4] | TGI [5] | TGI [6] | TGI [7] | TGI [8] | GI50 [1] | GI50 [2] | GI50 [3] | GI50 [4] | GI50 [8] | GI50 [9] | TGI [9] | GI50 [10] | TGI [10] | GI50 [5] | GI50 [6]
O=C1[C@@H]2C3SC(c4ccccc43)[C@@H]2C(=O)N1c1ccccc1 | > 100 µM | > 100 µM | > 100 µM | > 100 µM | > 100 µM | > 83 µM | > 100 µM | > 100 µM | – | – | – | – | – | – | – | – | – | – | –
O=C(CC(=O)Nc1ccccc1O)Nc1ccccc1O | > 100 µM | 6.01 µM | > 100 µM | > 100 µM | 22 µM | 37.2 µM | > 100 µM | 27 µM | – | – | – | – | – | – | – | – | – | – | –
Nc1ccc2c(c1)CC1c3ccccc3C(C2)c2ccccc21 | > 100 µM | > 100 µM | > 100 µM | > 100 µM | > 100 µM | > 100 µM | > 100 µM | > 100 µM | – | – | – | – | – | – | – | – | – | – | –
Cc1ccccc1NC(=O)C1C(=O)N(c2ccccc2C)C(=O)/C1=N\N (centres undefined) | – | > 100 µM | > 100 µM | > 100 µM | > 100 µM | > 100 µM | > 100 µM | > 100 µM | – | – | – | – | – | – | – | – | – | – | –
Nc1nc(N)c(N=O)c(Nc2ccc(I)cc2)n1 | 49.7 µM | 36.7 µM | – | – | 26.3 µM | – | 66.6 µM | > 100 µM | – | – | – | – | – | – | – | – | – | – | –
COc1cc(C(=O)C/C(CCC(=O)Nc2ccc(Cl)cc2Cl)=N/NC(=O)C(N)=O)ccc1O | > 100 µM | > 100 µM | > 100 µM | > 100 µM | > 100 µM | 43.7 µM | > 100 µM | > 100 µM | – | – | – | – | – | – | – | – | – | – | –
COc1cc2c(c(OC)c1OC)-c1ccc(SC)c(=O)cc1[C@@H](NCc1cccc(C#N)c1)CC2 | < 0.0075 µM | – | > 75 µM | 0.0348 µM and < 0.0075 µM | 0.0641 µM | 0.0568 µM | – | > 75 µM | < 0.0075 µM | < 0.0075 µM | < 0.0075 µM | < 0.0075 µM | < 0.0075 µM | – | – | – | – | – | –
CC(=O)Nc1ccccc1-c1cnc2ccccc2n1 | – | > 100 µM | > 100 µM | > 100 µM | > 100 µM | > 100 µM | > 100 µM | – | – | – | – | – | – | – | – | – | – | – | –
Cc1ccc(NC(=O)CC/C(CC(=O)c2ccc(F)cc2)=N\NC(=O)C(=O)NN)cc1C | > 100 µM | > 100 µM | > 100 µM | > 100 µM | > 100 µM | > 100 µM | > 100 µM | > 100 µM | – | – | – | – | – | – | – | – | – | – | –
O=C(/C=C/c1ccccc1O)c1cccnc1 | > 100 µM | > 100 µM | – | > 100 µM | > 100 µM | > 100 µM | > 100 µM | > 100 µM | – | – | – | – | – | – | – | – | – | – | –
CCOC(=O)C(Cc1ccccc1)NC(=O)OC(C)(C)C (centres undefined) | > 100 µM | > 100 µM | > 100 µM | > 100 µM | – | > 100 µM | > 100 µM | > 100 µM | – | – | – | – | – | – | – | – | – | – | –
O=C(O)CCCCCO | > 100 µM | > 100 µM | > 100 µM | > 100 µM | > 100 µM | > 100 µM | > 100 µM | > 100 µM | – | – | – | – | – | – | – | – | – | – | –
NCCCC1NC(=O)/C(=C(O)/C=C/C2CCC[C@@H]2CC2SCCS2)C1=O (some centres undefined) | > 100 µM | 64.3 µM | 99.8 µM | > 100 µM | > 100 µM | > 100 µM | – | > 100 µM | – | – | – | – | – | – | – | – | – | – | –
C/C1=C\C/C=C(\C)[C@H]2CC(CC/C(C)=C/CC1)[C@@](C)(CO)O2 | – | 51.1 µM | > 100 µM | > 100 µM | > 100 µM | > 100 µM | – | 89.9 µM | – | 16.8 µM | 36.3 µM | > 100 µM | 21.7 µM | > 100 µM | > 100 µM | 68.5 µM | > 100 µM | 87.3 µM | > 100 µM
